Biological target: D(3) dopamine receptor (Homo sapiens, UniProt P35462)
Assay: Displacement of [3H]N-methylspiperone from human dopamine D3 receptor by PDSP assay

Sequence of D(3) dopamine receptor (P35462 as listed by the source): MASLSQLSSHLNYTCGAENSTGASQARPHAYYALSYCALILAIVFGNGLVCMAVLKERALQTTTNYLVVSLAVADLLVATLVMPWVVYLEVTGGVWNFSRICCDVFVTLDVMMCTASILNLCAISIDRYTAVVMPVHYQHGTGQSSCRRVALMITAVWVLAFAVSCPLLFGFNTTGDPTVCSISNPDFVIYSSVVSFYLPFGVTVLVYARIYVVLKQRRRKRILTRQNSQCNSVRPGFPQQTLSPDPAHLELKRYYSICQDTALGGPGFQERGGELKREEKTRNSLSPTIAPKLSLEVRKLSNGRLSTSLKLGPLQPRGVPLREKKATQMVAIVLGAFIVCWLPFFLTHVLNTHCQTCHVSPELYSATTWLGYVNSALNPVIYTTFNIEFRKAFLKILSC

Ki: 671 nM
Structure (SMILES): Clc1ccc(N2C[C@H]3C[C@@H]2CN3CCCc2cc3ccccc3o2)cc1
